Key:
DEN1 = DEN1 (Homo sapiens, UniProt Q96LD8); test: biochemical
UCHL1 = UCHL1 (Homo sapiens, UniProt P09936); test: biochemical
caspase 3 = caspase 3 (Homo sapiens, UniProt P42574); test: biochemical
cathepsin K = cathepsin K (Homo sapiens, UniProt P43235); test: biochemical
[1] = mouse
USP2 = USP2 (Homo sapiens, UniProt O75604); test: biochemical
USP7 = USP7 (Homo sapiens, UniProt Q93009); test: biochemical
[2] = test system: SARS-CoV infected Vero E6 cells; format: cell-based
USP20 = USP20 (Homo sapiens, UniProt Q9Y2K6); test: biochemical
Sequence of USP20 (Q9Y2K6 whole entry): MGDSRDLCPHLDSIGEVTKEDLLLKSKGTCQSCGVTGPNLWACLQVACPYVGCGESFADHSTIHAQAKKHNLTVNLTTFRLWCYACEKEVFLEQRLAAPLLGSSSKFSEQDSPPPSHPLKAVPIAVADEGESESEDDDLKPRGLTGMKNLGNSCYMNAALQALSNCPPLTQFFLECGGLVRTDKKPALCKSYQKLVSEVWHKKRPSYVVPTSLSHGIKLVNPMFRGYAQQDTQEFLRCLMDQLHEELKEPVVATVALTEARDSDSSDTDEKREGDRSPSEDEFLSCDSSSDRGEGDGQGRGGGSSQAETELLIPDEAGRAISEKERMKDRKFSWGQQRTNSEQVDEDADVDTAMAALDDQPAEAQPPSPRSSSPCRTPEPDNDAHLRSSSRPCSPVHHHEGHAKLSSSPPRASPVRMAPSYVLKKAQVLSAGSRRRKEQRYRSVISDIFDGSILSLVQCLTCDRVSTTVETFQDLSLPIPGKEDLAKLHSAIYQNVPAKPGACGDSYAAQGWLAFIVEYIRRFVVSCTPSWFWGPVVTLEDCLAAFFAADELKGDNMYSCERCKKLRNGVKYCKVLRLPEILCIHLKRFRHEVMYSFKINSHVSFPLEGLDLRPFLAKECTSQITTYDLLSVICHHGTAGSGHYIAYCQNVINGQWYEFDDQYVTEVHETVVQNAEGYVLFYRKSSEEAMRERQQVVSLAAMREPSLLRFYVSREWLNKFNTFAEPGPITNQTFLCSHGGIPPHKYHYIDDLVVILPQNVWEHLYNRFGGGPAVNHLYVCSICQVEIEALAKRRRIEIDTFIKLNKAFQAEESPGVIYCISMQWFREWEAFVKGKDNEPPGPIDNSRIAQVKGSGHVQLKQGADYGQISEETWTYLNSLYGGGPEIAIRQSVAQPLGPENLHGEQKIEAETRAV

[3] = test system: SARS-CoV infected Vero E6 cells; conditions: read-out: EC50 (SARS-CoV antiviral); cited from earlier work

Sequence of UCHL1 (P09936 whole entry): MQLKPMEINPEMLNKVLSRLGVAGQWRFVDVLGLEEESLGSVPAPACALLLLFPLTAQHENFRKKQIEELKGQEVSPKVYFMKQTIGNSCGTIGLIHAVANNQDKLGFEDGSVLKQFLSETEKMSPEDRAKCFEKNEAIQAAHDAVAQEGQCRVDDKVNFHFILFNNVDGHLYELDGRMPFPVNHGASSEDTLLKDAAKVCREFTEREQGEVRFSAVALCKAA
Sequence of caspase 3 (P42574 29-175): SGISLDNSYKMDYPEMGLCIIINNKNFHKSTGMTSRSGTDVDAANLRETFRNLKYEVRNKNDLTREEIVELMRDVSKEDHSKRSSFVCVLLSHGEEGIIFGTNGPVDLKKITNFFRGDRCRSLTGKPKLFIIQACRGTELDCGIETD
Sequence of caspase 3 (P42574 176-277): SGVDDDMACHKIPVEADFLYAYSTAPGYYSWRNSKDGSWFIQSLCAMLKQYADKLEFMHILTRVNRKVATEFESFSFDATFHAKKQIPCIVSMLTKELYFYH
Sequence of DEN1 (Q96LD8 whole entry): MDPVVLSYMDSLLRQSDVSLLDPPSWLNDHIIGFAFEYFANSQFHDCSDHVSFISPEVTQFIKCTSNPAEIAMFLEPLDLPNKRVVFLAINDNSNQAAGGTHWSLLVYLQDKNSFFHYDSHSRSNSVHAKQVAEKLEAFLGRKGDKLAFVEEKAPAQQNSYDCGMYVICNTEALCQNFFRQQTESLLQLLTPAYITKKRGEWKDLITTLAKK
Sequence of USP2 (O75604 whole entry): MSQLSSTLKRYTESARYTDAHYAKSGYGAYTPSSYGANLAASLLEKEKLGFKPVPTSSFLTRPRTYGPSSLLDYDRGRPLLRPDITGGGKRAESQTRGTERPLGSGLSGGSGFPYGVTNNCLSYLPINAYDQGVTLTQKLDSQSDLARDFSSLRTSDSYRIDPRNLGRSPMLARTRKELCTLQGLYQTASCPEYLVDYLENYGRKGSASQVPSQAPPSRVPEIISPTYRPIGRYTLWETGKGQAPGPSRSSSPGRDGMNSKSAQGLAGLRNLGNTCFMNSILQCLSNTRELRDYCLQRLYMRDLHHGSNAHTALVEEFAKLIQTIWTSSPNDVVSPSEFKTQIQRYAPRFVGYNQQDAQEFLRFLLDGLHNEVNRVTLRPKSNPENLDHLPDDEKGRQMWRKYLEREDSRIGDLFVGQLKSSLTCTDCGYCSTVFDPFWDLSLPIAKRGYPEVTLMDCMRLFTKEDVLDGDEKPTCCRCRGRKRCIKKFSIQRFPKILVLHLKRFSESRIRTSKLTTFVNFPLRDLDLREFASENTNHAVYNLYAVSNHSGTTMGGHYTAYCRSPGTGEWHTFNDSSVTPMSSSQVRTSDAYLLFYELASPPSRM
Sequence of cathepsin K (P43235 115-329): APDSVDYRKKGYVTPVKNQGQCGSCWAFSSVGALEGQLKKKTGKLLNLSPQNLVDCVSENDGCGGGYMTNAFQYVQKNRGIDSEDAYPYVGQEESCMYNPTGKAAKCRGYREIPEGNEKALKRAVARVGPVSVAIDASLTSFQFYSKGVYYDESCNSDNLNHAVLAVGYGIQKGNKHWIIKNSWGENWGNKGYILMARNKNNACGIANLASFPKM
Sequence of USP7 (Q93009 whole entry): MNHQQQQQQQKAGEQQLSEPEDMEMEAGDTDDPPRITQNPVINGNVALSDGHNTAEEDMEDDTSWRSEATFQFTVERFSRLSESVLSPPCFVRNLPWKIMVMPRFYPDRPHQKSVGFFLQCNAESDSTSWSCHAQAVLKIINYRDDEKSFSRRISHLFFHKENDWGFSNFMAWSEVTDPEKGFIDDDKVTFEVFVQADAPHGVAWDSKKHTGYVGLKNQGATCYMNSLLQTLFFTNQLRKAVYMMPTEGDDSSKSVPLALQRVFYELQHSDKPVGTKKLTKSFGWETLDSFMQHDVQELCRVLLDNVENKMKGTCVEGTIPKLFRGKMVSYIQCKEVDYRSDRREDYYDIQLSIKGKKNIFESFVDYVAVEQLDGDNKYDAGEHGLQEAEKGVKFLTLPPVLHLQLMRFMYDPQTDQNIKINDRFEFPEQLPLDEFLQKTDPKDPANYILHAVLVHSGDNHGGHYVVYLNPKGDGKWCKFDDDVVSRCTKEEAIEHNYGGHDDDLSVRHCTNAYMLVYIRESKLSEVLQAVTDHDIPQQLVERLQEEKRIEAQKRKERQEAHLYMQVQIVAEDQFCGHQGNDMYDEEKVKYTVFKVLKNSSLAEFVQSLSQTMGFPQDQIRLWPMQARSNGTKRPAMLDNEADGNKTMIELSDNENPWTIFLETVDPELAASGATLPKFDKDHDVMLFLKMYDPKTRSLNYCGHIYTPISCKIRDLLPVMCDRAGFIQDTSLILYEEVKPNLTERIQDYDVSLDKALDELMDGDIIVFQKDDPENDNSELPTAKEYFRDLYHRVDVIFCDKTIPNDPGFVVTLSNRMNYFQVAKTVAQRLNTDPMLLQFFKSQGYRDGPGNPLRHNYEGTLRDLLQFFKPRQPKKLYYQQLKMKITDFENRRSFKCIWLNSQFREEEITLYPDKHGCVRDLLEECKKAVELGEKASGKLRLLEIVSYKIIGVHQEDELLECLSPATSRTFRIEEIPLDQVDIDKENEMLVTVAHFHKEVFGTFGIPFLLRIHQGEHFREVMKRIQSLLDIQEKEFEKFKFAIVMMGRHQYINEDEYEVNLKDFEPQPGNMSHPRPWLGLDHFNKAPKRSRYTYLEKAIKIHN

CC(=O)Nc1cccc(CNC(=O)C2CCN([C@H](C)c3cccc4ccccc34)CC2)c1 [3e, (R)-N-(3-Acetamidobenzyl)-1-(1-(naphthalen-1-yl)ethyl)piperidine-4-carboxamide]
IC50 (DEN1): > 100 µM
IC50 (UCHL1): > 100 µM
IC50 (caspase 3): > 100 µM
IC50 (cathepsin K): > 100 µM
half-life longer than that of 15g [1]: 4-5 fold

C[C@H](c1cccc2ccccc12)N1CCC(C(=O)NCc2ccc(F)cc2)CC1 [3j, (R)-N-(4-Fluorobenzyl)-1-(1-(naphthalen-1-yl)ethyl)piperidine-4-carboxamide]
IC50 (USP2): > 100 µM
IC50 (USP7): > 100 µM
IC50 (DEN1): > 100 µM
IC50 (UCHL1): > 100 µM
IC50 (caspase 3): > 100 µM
IC50 (cathepsin K): > 100 µM

C[C@H](c1cccc2ccccc12)N1CCC(C(=O)NCc2cccc(F)c2)CC1 [3k, (R)-N-(3-Fluorobenzyl)-1-(1-(naphthalen-1-yl)ethyl)piperidine-4-carboxamide]
IC50 (USP2): > 100 µM
IC50 (USP7): > 100 µM
IC50 (DEN1): > 100 µM
IC50 (UCHL1): > 100 µM
IC50 (caspase 3): > 100 µM
IC50 (cathepsin K): > 100 µM
improvement in antiviral activity compared to 15g [2]: 2 fold

COc1cc(CNC(=O)C2CCN([C@H](C)c3cccc4ccccc34)CC2)ccn1 [5c, (R)-N-((2-Methoxypyridin-4-yl)methyl)-1-(1-(naphthalen-1-yl)ethyl)piperidine-4-carboxamide]
half-life longer than that of 15g [1]: 4-5 fold

C[C@H](c1cccc2ccccc12)N1CCC(C(=O)NCc2ccc3c(c2)OCO3)CC1 [15g, reference compound]
IC50 (USP2): > 100 µM
IC50 (USP7): > 100 µM
IC50 (USP20): > 100 µM
IC50 (DEN1): > 100 µM
IC50 (UCHL1): > 100 µM
IC50 (caspase 3): > 100 µM
IC50 (cathepsin K): > 100 µM
EC50 [3]: 9.1 µM
